# Assay results published in patent US10723707B2, “Heterocyclic substituted 2-amino quinazoline derivatives for the treatment of viral infections” (JANSSEN SCIENCES IRELAND UNLIMITED COMPANY, priority 2012, dated 2020).
# How the values were obtained:
# Assay type in all cases: cell-based
# [1] = system: interferon-stimulated responsive elements (ISRE); assay: Activation of ISRE promoter elements in HEK-ISREluc cells by conditioned media from PBMC; settings: Homo sapiens, compound concentration applied to PBMCs, supernatant transferred to HEK-ISREluc cells, 24 hours, read-out: HEK-ISRE luc (LEC)
# Procedure: The potential of compounds to induce IFN-I was also evaluated by measuring the activation of interferon-stimulated responsive elements (ISRE) by conditioned media from PBMC. The ISRE element of sequence GAAACTGAAACT (SEQ ID: 1) is highly responsive to the STAT1-STAT2-IRF9 transcription factor, activated upon binding of IFN-I to their receptor IFNAR (Clontech, PT3372-5W). The plasmid pISRE-Luc from Clontech (ref. 631913) contains 5 copies of this ISRE element, followed by the firefly luciferase ORF. A HEK293 cell line stably transfected with pISRE-Luc (HEK-ISREluc) was established to profile the conditioned PBMC cell culture media.
# Briefly, PBMCs were prepared from buffy coats of at least two donors using a standard Ficoll centrifugation protocol. Isolated PBMCs were resuspended in RPMI medium supplemented with 10% human AB serum and 2×10^5 cells/well were dispensed into 384-well plates containing compounds (70 μL total volume). After overnight incubation, 10 μL of supernatant was transferred to 384-well plates containing 5×10^3 HEK-ISREluc cells/well in 30 μL (plated the day before). Following 24 hours of incubation, activation of the ISRE elements was measured by assaying luciferase activity using 40 μL/well Steady Lite Plus substrate (Perkin Elmer) and measured with ViewLux ultraHTS microplate imager (Perkin Elmer). The stimulating activity of each compound on the HEK-ISREluc cells was reported as LEC value, defined as the compound concentration applied to the PBMCs resulting in a luciferase activity at least two fold above the standard deviation of the assay. The LEC in turn indicates the degree of ISRE activation on transfer of a defined amount of PBMC culture medium. Recombinant interferon α-2a (Roferon-A) was used as a standard control compound.
# [2] = target: T1, human TLR8 (Homo sapiens, UniProt Q9NR97); assay: TLR8 cellular NFκB-luc reporter assay in transiently transfected HEK293 cells; settings: lowest effective concentration, 6 hours incubation
# T1 construct: expressed in transfected cells; host or cells: HEK293
# T1 sequence (Q9NR97 27-1041): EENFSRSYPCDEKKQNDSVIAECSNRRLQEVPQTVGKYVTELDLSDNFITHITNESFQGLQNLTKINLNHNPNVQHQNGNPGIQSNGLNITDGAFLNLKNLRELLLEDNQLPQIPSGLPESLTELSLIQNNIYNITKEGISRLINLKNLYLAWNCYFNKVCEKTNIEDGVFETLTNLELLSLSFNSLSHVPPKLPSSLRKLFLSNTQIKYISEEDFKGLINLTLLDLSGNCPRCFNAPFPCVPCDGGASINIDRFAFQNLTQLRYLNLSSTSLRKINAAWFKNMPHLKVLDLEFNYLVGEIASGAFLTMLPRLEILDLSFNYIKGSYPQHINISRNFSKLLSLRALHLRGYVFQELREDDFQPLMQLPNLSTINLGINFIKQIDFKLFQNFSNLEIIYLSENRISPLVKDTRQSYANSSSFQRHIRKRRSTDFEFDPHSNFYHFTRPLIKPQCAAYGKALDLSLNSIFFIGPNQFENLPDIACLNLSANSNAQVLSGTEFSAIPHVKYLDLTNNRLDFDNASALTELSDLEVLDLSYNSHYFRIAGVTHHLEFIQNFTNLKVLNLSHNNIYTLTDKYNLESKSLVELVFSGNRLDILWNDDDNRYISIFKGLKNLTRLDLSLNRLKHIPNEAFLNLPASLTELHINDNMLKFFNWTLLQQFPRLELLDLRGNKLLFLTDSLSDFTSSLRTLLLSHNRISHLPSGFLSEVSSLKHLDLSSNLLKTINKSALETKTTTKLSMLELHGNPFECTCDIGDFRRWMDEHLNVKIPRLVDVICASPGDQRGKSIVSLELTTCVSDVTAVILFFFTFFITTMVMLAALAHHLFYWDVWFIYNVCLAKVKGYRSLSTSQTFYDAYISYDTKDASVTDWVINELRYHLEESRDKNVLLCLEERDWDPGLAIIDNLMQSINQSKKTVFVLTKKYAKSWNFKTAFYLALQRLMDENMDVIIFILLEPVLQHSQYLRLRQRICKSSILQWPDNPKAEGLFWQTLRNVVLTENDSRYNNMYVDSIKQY
# Procedure: (§1) The ability of compounds to activate human TLR7 and/or TLR8 was assessed in a cellular reporter assay using HEK293 cells transiently transfected with a TLR7 or TLR8 expression vector and NFκB-luc reporter construct.
# (§2) Briefly, HEK293 cells were grown in culture medium (DMEM supplemented with 10% FCS and 2 mM Glutamine). For transfection of cells in 15 cm dishes, cells were detached with Trypsin-EDTA, transfected with a mix of CMV-TLR7 or TLR8 plasmid (1700 ng), NFκB-luc plasmid (850 ng) and a transfection reagent and incubated for 48 h at 37° C. in a humidified 5% CO2 atmosphere. Transfected cells were then washed in PBS, detached with Trypsin-EDTA and resuspended in medium to a density of 1.25×10^5 cells/mL. Forty microliters of cells were then dispensed into each well in 384-well plates, where 200 nL of compound in 100% DMSO was already present. Following 6 hours incubation at 37° C., 5% CO2, the luciferase activity was determined by adding 15 μL of Steady Lite Plus substrate (Perkin Elmer) to each well and readout performed on a ViewLux ultraHTS microplate imager (Perkin Elmer). Dose response curves were generated from measurements performed in quadruplicates. Lowest effective concentrations (LEC) values, defined as the concentration that induces an effect which is at least two fold above the standard deviation of the assay, were determined for each compound.
# [3] = target: T2, human TLR7 (Homo sapiens, UniProt Q9NYK1); assay: TLR7 cellular NFκB-luc reporter assay in transiently transfected HEK293 cells; settings: lowest effective concentration, 6 hours incubation
# T2 construct: expressed in transfected cells; host or cells: HEK293
# T2 sequence (Q9NYK1 27-1049): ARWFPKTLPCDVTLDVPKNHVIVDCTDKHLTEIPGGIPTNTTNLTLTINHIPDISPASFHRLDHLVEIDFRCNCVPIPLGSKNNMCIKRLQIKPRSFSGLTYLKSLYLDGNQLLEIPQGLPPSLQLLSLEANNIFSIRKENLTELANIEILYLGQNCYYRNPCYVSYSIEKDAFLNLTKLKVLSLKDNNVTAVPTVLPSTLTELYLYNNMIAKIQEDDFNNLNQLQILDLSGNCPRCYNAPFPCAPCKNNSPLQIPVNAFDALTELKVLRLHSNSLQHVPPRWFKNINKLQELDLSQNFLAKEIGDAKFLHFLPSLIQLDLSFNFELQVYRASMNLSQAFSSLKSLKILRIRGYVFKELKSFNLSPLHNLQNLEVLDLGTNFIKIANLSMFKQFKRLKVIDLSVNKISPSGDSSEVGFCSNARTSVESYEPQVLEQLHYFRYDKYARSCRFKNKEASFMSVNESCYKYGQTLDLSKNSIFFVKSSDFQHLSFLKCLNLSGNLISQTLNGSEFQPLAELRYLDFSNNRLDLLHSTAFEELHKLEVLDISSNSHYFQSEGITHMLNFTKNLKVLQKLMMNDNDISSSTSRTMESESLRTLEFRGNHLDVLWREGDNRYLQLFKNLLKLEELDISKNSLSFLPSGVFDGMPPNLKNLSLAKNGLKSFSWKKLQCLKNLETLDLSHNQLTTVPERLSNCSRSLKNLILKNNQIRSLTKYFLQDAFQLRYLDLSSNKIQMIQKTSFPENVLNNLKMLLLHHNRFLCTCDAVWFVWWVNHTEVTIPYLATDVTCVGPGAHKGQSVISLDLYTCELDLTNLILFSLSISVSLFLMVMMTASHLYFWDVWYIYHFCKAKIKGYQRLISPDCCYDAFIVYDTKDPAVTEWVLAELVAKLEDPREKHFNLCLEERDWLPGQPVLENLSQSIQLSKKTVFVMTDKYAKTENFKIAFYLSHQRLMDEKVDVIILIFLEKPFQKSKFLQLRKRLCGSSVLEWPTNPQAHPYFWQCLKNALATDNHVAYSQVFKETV
# Procedure: as §1, §2
Human TLR 8 (LEC) [2] [µM],Human TLR 7 (LEC) [3] [µM],Compound,minimal effective concentration [1] [µM]
>25,0.94,"COc1cccc2nc(N)nc(N[C@H](C)c3ccccn3)c12 (single isomer, unassigned) [Compound 2]",0.49
24.3,8.25,"C[C@H](Nc1nc(N)nc2cccc(F)c12)c1ccccn1 (single isomer, unassigned) [Compound 18]",7.83
>25,5.21,"C[C@@H](Nc1nc(N)nc2c(F)cccc12)c1ccccn1 (single isomer, unassigned) [Compound 9]",1.68

# The remaining lines, values behind:
Compound,Human TLR 8 (LEC) [2] [µM],Human TLR 7 (LEC) [3] [µM],minimal effective concentration [1] [µM]
"C[C@@H](Nc1nc(N)nc2cc(F)ccc12)c1ccccn1 (single isomer, unassigned) [Compound 4]",19.8,0.92,0.59
COc1cccc2nc(N)nc(N[C@@H](C)[C@H](O)c3ccccc3)c12 [Compound 15],>25,0.61,0.56
Cc1cc(CNc2nc(N)nc3cccc(F)c23)no1 [Compound 11],3.09,0.45,0.082
"Cc1ccc2c(N[C@H](C)c3ccccn3)nc(N)nc2c1 (single isomer, unassigned) [Compound 5]",14.7,0.53,0.11
"CCN(CC)C(=O)c1ccc2c(N[C@H](C)c3ccccn3)nc(N)nc2c1 (single isomer, unassigned) [Compound 26]",>25,2.14,7.33
